# Columns and labels:
# Assay type in all cases: in vivo
# [1] = test system: ducksalad (Heteranthera limosa); experiment: Test B1 flooded paddy test, ducksalad; settings: 250 g ai/ha, Flood, applied to paddy water, 2-leaf stage, visually evaluated after 10 to 14 days
# Text: (§1) A dash (-) response means no test result.
# [2] = test system: corn (Zea mays); experiment: Test A1 postemergence, corn; settings: Postemergence
# Outline: (§2)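 Both timings started from seed in a loam-sand blend. Preemergence pots got a directed soil application immediately; postemergence pots were sprayed when seedlings had one or two leaves and stood 2–10 cm. Each compound was prepared in a non-phytotoxic solvent plus surfactant.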
# [3] = test system: ragweed (common ragweed, Ambrosia artemisiifolia); experiment: Test A1 preemergence, ragweed
# Outline: as §2
# [4] = test system: Oat, Wild (wild oat, Avena fatua); experiment: Test A1 postemergence, Oat, Wild; settings: Postemergence
# Outline: (§3)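 Postemergence species (ragweed, Palmer pigweed, wild oat) were sprayed at one- to two-leaf stage, 2 to 10 cm tall. Corn was treated preemergence by directed soil spray. Both used a loam soil/sand blend and compounds in a non-phytotoxic solvent mixture with surfactant.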
# [5] = test system: Pigweed, Palmer (palmer amaranth, palmer pigweed, Amaranthus palmeri); experiment: Test A1 preemergence, Pigweed, Palmer
# Outline: as §2
# [6] = test system: horseweed (Erigeron canadensis); experiment: Test A1 postemergence, horseweed; settings: Postemergence
# Outline: (§4)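 Herbicidal response was scored on plants treated either preemergence, by directed spray onto soil of a loam–sand blend after sowing, or postemergence on potted plants at the one- to two-leaf stage, 2–10 cm high. Test chemicals were carried in a non-phytotoxic solvent mix with surfactant.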
# [7] = test system: Pigweed, Palmer (palmer amaranth, palmer pigweed, Amaranthus palmeri); experiment: Test A1 postemergence, Pigweed, Palmer; settings: Postemergence
# Outline: as §3
# [8] = test system: galium (catchweed bedstraw, Galium aparine); experiment: Test A1 postemergence, galium; settings: Postemergence
# Outline: as §4
# [9] = test system: soybean (Glycine max); experiment: Test A1 postemergence, soybean; settings: Postemergence
# Outline: as §4
# [10] = test system: Oat, Wild (wild oat, Avena fatua); experiment: Test A1 preemergence, Oat, Wild
# Outline: as §2
# [11] = test system: kochia (Bassia scoparia); experiment: Test A1 preemergence, kochia
# Outline: as §2
# [12] = test system: blackgrass (Alopecurus myosuroides); experiment: Test A1 postemergence, blackgrass; settings: Postemergence, 0 to 100 scale (0 no effect, 100 complete control)
# Outline: as §4
# [13] = test system: rice (Oryza sativa); experiment: Test B1 flooded paddy test, rice; settings: 250 g ai/ha, Flood, applied to paddy water, 2-leaf stage, visually evaluated after 10 to 14 days
# Text: as §1
# [14] = test system: wheat (Triticum aestivum); experiment: Test A1 postemergence, wheat; settings: Postemergence
# Outline: as §4
# [15] = test system: blackgrass (Alopecurus myosuroides); experiment: Test A1 preemergence, blackgrass
# Outline: as §2
# [16] = test system: corn (Zea mays); experiment: Test A1 preemergence, corn
# Outline: as §3
# [17] = test system: goosegrass (Eleusine indica); experiment: Test A1 postemergence, goosegrass; settings: Postemergence
# Outline: as §4
# [18] = test system: soybean (Glycine max); experiment: Test A1 preemergence, soybean
# Outline: as §2
# [19] = test system: Ryegrass, Italian (Italian ryegrass, Lolium multiflorum); experiment: Test A1 postemergence, Ryegrass, Italian; settings: Postemergence
# Outline: as §4
# [20] = test system: Foxtail, Giant (giant foxtail, Setaria faberi); experiment: Test A1 postemergence, Foxtail, Giant; settings: Postemergence
# Outline: as §4
# [21] = test system: Ryegrass, Italian (Italian ryegrass, Lolium multiflorum); experiment: Test A1 preemergence, Ryegrass, Italian
# Outline: as §2
# [22] = test system: Foxtail, Giant (giant foxtail, Setaria faberi); experiment: Test A1 preemergence, Foxtail, Giant
# Outline: as §2
# [23] = test system: kochia (Bassia scoparia); experiment: Test A1 postemergence, kochia; settings: Postemergence
# Outline: as §4
# [24] = test system: ragweed (common ragweed, Ambrosia artemisiifolia); experiment: Test A1 postemergence, ragweed; settings: Postemergence
# Outline: as §3
# [25] = test system: goosegrass (Eleusine indica); experiment: Test A1 preemergence, goosegrass
# Outline: as §2
# [26] = test system: barnyardgrass (Echinochloa crus-galli); experiment: Test B1 flooded paddy test, barnyardgrass; settings: 250 g ai/ha, Flood, applied to paddy water, 2-leaf stage, visually evaluated after 10 to 14 days
# Text: as §1
# [27] = test system: wheat (Triticum aestivum); experiment: Test A1 preemergence, wheat
# Outline: as §2
# [28] = 31 g ai/ha, 0 to 100 scale (0 no effect, 100 complete control), 10 days
# [29] = 31 g ai/ha, 0 to 100 scale (0 no effect, 100 complete control)
# [30] = 125 g ai/ha, 0 to 100 scale, 0 no effect, 100 complete control
compound,measurement,setting,value
Cc1cc(C)c(N(COC(=O)C(C)C)S(=O)(=O)C(F)(F)F)cc1C1=NOC2CCCC12 (stereo not drawn) [Compound 308],"Plant response rating, Ducksalad (0 to 100 scale, 0 is no effect, 100 is complete control)",[1],90
same,"Plant response rating, Corn",[2]; [28],0
same,"Plant response rating, Corn","[2]; 125 g ai/ha, 0 to 100 scale",30
same,"Plant response rating, Ragweed",[3]; [29],0
same,"Plant response rating, Ragweed",[3]; [30],50
same,"Plant response rating, Oat, Wild",[4]; [28],0
same,"Plant response rating, Oat, Wild","[4]; 125 g ai/ha, 0 to 100 scale",0
same,"Plant response rating, Pigweed, Palmer",[5]; [29],40
same,"Plant response rating, Pigweed, Palmer",[5]; [30],70
same,"Plant response rating, Horseweed",[6]; [28],0
same,"Plant response rating, Horseweed","[6]; 125 g ai/ha, 0 to 100 scale",60
same,"Plant response rating, Pigweed, Palmer",[7]; [28],0
same,"Plant response rating, Pigweed, Palmer","[7]; 125 g ai/ha, 0 to 100 scale",0
same,"Plant response rating, Galium",[8]; [28],60
same,"Plant response rating, Galium","[8]; 125 g ai/ha, 0 to 100 scale",90
same,"Plant response rating, Soybean",[9]; [28],40
same,"Plant response rating, Soybean","[9]; 125 g ai/ha, 0 to 100 scale",60
same,"Plant response rating, Oat, Wild",[10]; [29],0
same,"Plant response rating, Oat, Wild",[10]; [30],50
same,"Plant response rating, Kochia",[11]; [29],20
same,"Plant response rating, Kochia",[11]; [30],70
same,"Plant response rating, Blackgrass","[12]; 31 g ai/ha, 10 days",0
same,"Plant response rating, Blackgrass",[12]; 125 g ai/ha,0
same,"Plant response rating, Rice (0 to 100 scale, 0 is no effect, 100 is complete control)",[13],10
same,"Plant response rating, Wheat",[14]; [28],10
same,"Plant response rating, Wheat","[14]; 125 g ai/ha, 0 to 100 scale",50
same,"Plant response rating, Blackgrass",[15]; [29],0
same,"Plant response rating, Blackgrass",[15]; [30],50
same,"Plant response rating, Corn",[16]; [29],0
same,"Plant response rating, Corn",[16]; [30],60
same,"Plant response rating, Goosegrass",[17]; [28],50
same,"Plant response rating, Goosegrass","[17]; 125 g ai/ha, 0 to 100 scale",80
same,"Plant response rating, Soybean",[18]; [29],0
same,"Plant response rating, Soybean",[18]; [30],30
same,"Plant response rating, Ryegrass, Italian",[19]; [28],0
same,"Plant response rating, Ryegrass, Italian","[19]; 125 g ai/ha, 0 to 100 scale",30
same,"Plant response rating, Foxtail, Giant",[20]; [28],0
same,"Plant response rating, Foxtail, Giant","[20]; 125 g ai/ha, 0 to 100 scale",40
same,"Plant response rating, Ryegrass, Italian",[21]; [29],60
same,"Plant response rating, Ryegrass, Italian",[21]; [30],90
same,"Plant response rating, Foxtail, Giant",[22]; [29],50
same,"Plant response rating, Foxtail, Giant",[22]; [30],80
same,"Plant response rating, Kochia",[23]; [28],20
same,"Plant response rating, Kochia","[23]; 125 g ai/ha, 0 to 100 scale",70
same,"Plant response rating, Ragweed",[24]; [28],50
same,"Plant response rating, Ragweed","[24]; 125 g ai/ha, 0 to 100 scale",90
same,"Plant response rating, Goosegrass",[25]; [29],80
same,"Plant response rating, Goosegrass",[25]; [30],90
same,"Plant response rating, Barnyardgrass (0 to 100 scale, 0 is no effect, 100 is complete control)",[26],95
same,"Plant response rating, Wheat",[27]; [29],20
same,"Plant response rating, Wheat",[27]; [30],80

# From patent publication US20230278972A1, “SUBSTITUTED HALOALKYL SULFONANILIDE HERBICIDES” (FMC Corporation, priority 2020, published 2023)
